Results: patent publication US6423707B1, “Nitroimidazole ester analogues and therapeutic applications” (California Pacific Medical Center, priority 2000, dated 2002)
In brackets after ≈: the same amount, converted by molar mass. Where two headings read alike, the source gives them in different places.

What was measured:
[1] = system: metronidazole resistant H. pylori isolate (ATCC strain 43579); assay: Helicobacter pylori microbicidal assay (Example 12); assay type: cell-based; details: for MBC: Helicobacter pylori
[2] = system: Ohio State university Helicobactor pylori isolate working seed lot #061697; assay: microbe, parasite or virus in culture; assay type: cell-based; details: Helicobacter pylori, 72 h, read-out: MBC OSU Isolate 061697
[3] = system: Helicobactor pylori ATCC strain 43579; assay: microbe, parasite or virus in culture; assay type: cell-based; details: Helicobacter pylori, ATCC43579, 72 h, read-out: MBC H. Pylori 43579
[4] = system: another H pylori isolate (a virulent human isolate used in the germ-free pig model); assay: microbe, parasite or virus in culture; assay type: cell-based; details: Helicobacter pylori
[5] = ATCC43579, 72 h, read-out: MBC (Minimal Bactericidal Concentration), lowest concentration that killed 100% of the H. pylori working solution, ATCC strain 43579, metronidazole-resistant, 72 hours
[6] = relative to positive control (=1), ATCC strain 43579
[7] = ATCC43579, 72 h, read-out: MBC (Minimal Bactericidal Concentration)
[8] = ATCC43579, lowest concentration that killed 100% of the H. pylori working solution, ATCC strain 43579, metronidazole-resistant, 72 hours, read-out: MBC (Minimal Bactericidal Concentration)

Compound	Bactericidal Activity Index [1]	MBC [2]	Bactericidal Activity Index [1, 6]	MBC [3]	other results
2-Methyl-5-nitro-1H-imidazole-1-ethyl 9,10-dihydro-9,10-dioxo-2-anthracenecarboxylate [Formula 9]	7.4				MBC (Minimal Bactericidal Concentration) [1]: 12 µg/mL
2-Methyl-5-nitro-1H-imidazole-1-ethyl 9-oxo-9H-thioxanthene-3-carboxylate [Formula 6]	6.4				MBC (Minimal Bactericidal Concentration) [1]: 14 µg/mL
2-methyl-5-nitro-1H-imidazole-1-ethyl 1-ethyl-1,4-dihydro-7-methyl-4-oxo-1,8-naphthyridine-3-carboxylate [Formula 10]	12.7				MBC (Minimal Bactericidal Concentration) [1]: 7 µg/mL
Cc1ncc([N+](=O)[O-])n1CCOC(=O)c1cccnc1 [Formula 1C, 2-Methyl-5-nitro-1H-imidazole-1-ethyl Nicotinate]		22.3 µg/mL	17.8	22.3 µg/mL	MBC [1, 5]: 4 µg/mL; MBC (Minimal Bactericidal Concentration) ([1]; lowest concentration that killed 100% of the H. pylori working solution, ATCC strain 43579, metronidazole-resistant, 72 hours): 5 µg/mL
Cc1ncc([N+](=O)[O-])n1CCOC(=O)c1ccc([N+](=O)[O-])o1 [Formula 2C, 2-Methyl-5-nitro-1H-imidazole-1-ethyl 5-nitro-2-furoate]	29.7	12.6 µg/mL		12.6 µg/mL	melting point: 150 to 152 °C; MBC [1, 7]: 3 µg/mL
Cc1ncc([N+](=O)[O-])n1CCOC(=O)c1cc(C(=O)OCCn2c([N+](=O)[O-])cnc2C)cc([N+](=O)[O-])c1 [Formula 3C, Di (2-methyl-5-nitro-1H-imidazole-1-ethyl) 5-nitro-1,3-benzenedicarboxylate]	29.7	19.8 µg/mL		19.8 µg/mL	MBC [1, 7]: 3 µg/mL
Cc1ncc([N+](=O)[O-])n1CCOC(=O)c1cc(-c2ccccc2)nc2ccccc12 [Formula 4C, 2-Methyl-5-nitro-1H-imidazole-1-ethyl 2-phenyl-4-quinolinecarboxylate]		20.5 µg/mL	45	10.3 µg/mL	melting point: 122 to 124 °C; MBC [1, 5]: 2 µg/mL; MBC [4]: 10.2 µg/mL
Cc1ncc([N+](=O)[O-])n1CCOC(=O)N1c2ccccc2Sc2ccccc21 [Formula 5C, 2-Methyl-5-nitro-1H-imidazole-1-ethyl phenothiazine-10-carboxylate]		10.3 µg/mL	44.5	10.3 µg/mL	MBC [1, 5]: 2 µg/mL; MBC [4]: 10.2 µg/mL
Cc1ncc([N+](=O)[O-])n1CCOC(=O)c1cc(=O)c2ccccc2o1 [Formula 7, 2-Methyl-5-nitro-1H-imidazole-1-ethyl 4-oxo-4H-1-benzopyran-2-carboxylate]			8.9		melting point: 210 to 212 °C (dec.); MBC [1, 8]: 10 µg/mL
Cc1ncc([N+](=O)[O-])n1CCOC(=O)c1ccc(-c2ccc(Cl)cc2[N+](=O)[O-])o1 [Formula 13]					MBC [1, 7]: > 97 µg/mL
CCn1cc(C(=O)OCCn2c([N+](=O)[O-])cnc2C)c(=O)c2ccc(C)nc21 [Formula 15]			8.9		MBC [1, 8]: 15 µg/mL
Cc1ncc([N+](=O)[O-])n1CCO [Positive Control, metronidazole, reference compound]			1		MBC [1, 8]: 89 µg/mL (≈ 520 µM)
